Literature values as cited in PMC13379419, “Integrating high-fidelity hiPSC-cardiomyocytes with AI-driven modeling for enhanced proarrhythmic risk assessment” (Archives of Toxicology, 2026).

Design: method as in none printed
Conditions: clinical maximum plasma concentration

Cmax: 3 µM
Compound: C=C[C@H]1C[N@@]2CC[C@H]1C[C@@H]2[C@@H](O)c1ccnc2ccc(OC)cc12 [Quinidine]
